# In publication PMC3715397 (Bioorganic & medicinal chemistry, 2013):
# Entries after “also recorded” stand apart in the source; their conditions may differ.
# Target: M. ramosa APAH (Mycoplana ramosa, UniProt Q48935)
# Test: Fluorimetric APAH inhibition assay
# Format: biochemical
# Details: for Inhibitory potency against APAH, IC50 range in words: qualitative range stated in text
# Chain of M. ramosa APAH (Q48935 whole entry): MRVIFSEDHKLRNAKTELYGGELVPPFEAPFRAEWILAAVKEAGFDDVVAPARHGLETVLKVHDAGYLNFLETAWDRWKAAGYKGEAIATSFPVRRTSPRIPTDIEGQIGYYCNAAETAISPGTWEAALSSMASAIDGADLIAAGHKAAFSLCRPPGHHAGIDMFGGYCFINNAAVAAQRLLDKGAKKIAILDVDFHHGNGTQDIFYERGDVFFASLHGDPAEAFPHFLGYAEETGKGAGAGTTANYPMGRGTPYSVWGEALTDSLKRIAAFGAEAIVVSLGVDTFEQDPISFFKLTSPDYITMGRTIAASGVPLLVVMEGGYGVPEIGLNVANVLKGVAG
Structure (SMILES),"Inhibitory potency against APAH, IC50 range in words",IC50
"Cl.Cl.NCCCNCCCCCC(=O)O [I, 6-[(3-aminopropyl)amino]hexanoic acid dihydrochloride]",millimolar range,
"CC(=O)CCCCCNCCCN.Cl.Cl [II, 7-[(3-aminopropyl)amino]heptan-2-one dihydrochloride]",mid-micromolar range,
"Cl.Cl.NCCCNCCCCCC(=O)NO [III, 6-[(3-aminopropyl)amino]-N-hydroxyhexanamide dihydrochloride]",nanomolar range; also recorded: nanomolar inhibitory potency,
"Cl.Cl.NCCCNCCCCCC(=O)C(F)(F)F [IV, 7-[(3-aminopropyl)amino]-1,1,1-trifluoroheptan-2-one dihydrochloride]",nanomolar range; also recorded: nanomolar inhibitory potency,38 µM
"CS(=O)(=O)CCCCCNCCCN.Cl.Cl [IX, N^1-[5-(methylsulfonyl)pentyl]propane-1,3-diamine dihydrochloride]",millimolar range,
"CC(=O)SCC(=O)CCCCCNCCCN.Cl.Cl [V, 7-{[(3-aminopropyl)amino]-2-oxoheptyl} thioacetate dihydrochloride]",mid-micromolar range,4000 µM
"COCC(=O)CCCCCNCCCN.Cl.Cl [VI, 7-[(3-aminopropyl)amino]-1-methoxyheptan-2-one dihydrochloride]",mid-micromolar range,
"CC(=O)SCCCCCNCCCN.Cl.Cl [VII, S-{5-[(3-aminopropyl)amino]pentyl} thioacetate dihydrochloride]",millimolar range,
"Cl.Cl.NCCCNCCCCCS [VIII, 5-[(3-aminopropyl)amino]pentane-1-thiol dihydrochloride]",mid-micromolar range,
"Cl.Cl.NCCCNCCCCCB(O)O [X, 5-[(3-aminopropyl)amino]pentylboronic acid dihydrochloride]",mid-micromolar range,
